Experiment [1] deals with human FLAP (Homo sapiens (Human), UniProt P20292). Put plainly: FLAP binding assay (HTRF). Particulars: human FLAP-containing membranes, HTRF format; average of two assay plates, duplicates; read-out: FLAP Binding wild type HTRF Ki. The method, boiled down: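 Averaged over two plates (duplicate wells per plate); output given as HTRF ratio.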
In general terms: TR-FRET usually uses a lanthanide donor and a delayed reading to cut background.

Experiment [2] deals with leukotriene pathway in human whole blood (LTB4 levels). Put plainly: Human whole blood assay (LTB4). In kind it is cell-based. Conditions: human whole blood diluted 1:1 in RPMI, stimulated with calcium ionophore A23187; single replicate. The method, boiled down:
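Blood (heparin) diluted 1:1 RPMI; compound pre-incubation 15 min, 37° Celsius; A23187 7 μg/mL, 30 min, 37° Celsius; plasma LTB4 by commercial kit. IC50 via 4-parameter equation.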

pIC50, pKi: −log10 of the molar value. Counter-ions that a name gives are not always drawn.

Chain of human FLAP (P20292 whole entry): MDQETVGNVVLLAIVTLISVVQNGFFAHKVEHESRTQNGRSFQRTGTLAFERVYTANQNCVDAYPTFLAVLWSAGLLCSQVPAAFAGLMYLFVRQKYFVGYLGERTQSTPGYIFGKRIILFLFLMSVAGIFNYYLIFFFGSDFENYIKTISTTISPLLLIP

A word on the pKi: it is −log10 of the Ki, conventionally taken in molar units. The term pIC50 denotes the IC50 on a negative log10 scale, so that one unit is a factor of ten. In the case of `Nc1cnc(-c2ccc(C3CCC3)c(OCc3ccccc3)c2F)cn1` [Example 83, 5-[3-(Benzyloxy)-4-cyclobutyl-2-fluorophenyl]-pyrazin-2-amine], in experiment [1], the negative-log Ki (pKi) is 7.43. Further, the pIC50 in experiment [2] was 6.22.

Turning to `COC(=O)c1ccc2oc(COc3c(C4CCC4)ccc(-c4cnc(N)cn4)c3F)nc2c1` [Example 262, Methyl 2-{[3-(5-aminopyrazin-2-yl)-6-cyclobutyl-2-fluorophenoxy]methyl}-1,3-benzoxazole-5-carboxylate], in experiment [1], the pKi was 7.71. Besides, in experiment [2], the negative logarithm of the IC50 (pIC50) is 6.80.

For the compound `Nc1cnc(-c2ccc(C3CCC3)c(OCc3ccccc3C(F)(F)F)c2F)cn1` [Example 3, 5-(4-Cyclobutyl-2-fluoro-3-{[2-(trifluoromethyl)benzyl]oxy}phenyl)-pyrazin-2-amine], the pKi in experiment [1] is 6.60. The pIC50 in experiment [2] is 6.57.

With `CC(C)c1ccc(-c2cnc(N)cn2)c(F)c1Oc1ncccn1` [Example 318, 5-[2-Fluoro-4-(1-methylethyl)-3-(pyrimidin-2-yloxy)phenyl]pyrazin-2-amine], the negative logarithm of the Ki (pKi) in experiment [1] is 7.24. For the same compound, in experiment [2], the pIC50 was 6.99.

As for `Oc1c(C2CCC2)ccc(-c2cnc3[nH]ccc3c2)c1F` [Example 220, 6-cyclobutyl-2-fluoro-3-(1H-pyrrolo[2,3-b]pyridin-5-yl)phenol], the negative-log Ki (pKi) in experiment [1] was 7.66. Besides, the pIC50 in experiment [2] is 5.95.

In the case of `Nc1cnc(-c2ccc(C3CCC3)c(Oc3ccnc(-c4ccccc4)n3)c2F)cn1` [Example 144, 5-{4-Cyclobutyl-2-fluoro-3-[(2-phenylpyrimidin-4-yl)oxy]phenyl}pyrazin-2-amine], in experiment [1], the negative-log Ki (pKi) is 8.96. The pIC50 in experiment [2] is 7.65.

Regarding `COc1c(C2CCC2)ccc(-c2cnc(N)c(C#N)n2)c1F` [Example 218, 3-amino-6-(4-cyclobutyl-2-fluoro-3-methoxyphenyl)-pyrazine-2-carbonitrile], in experiment [1], the pKi was 7.11. The pIC50 in experiment [2] was less than 5.30.

With `CC(C)c1cc(Oc2c(C3CCC3)ccc(-c3cnc(N)cn3)c2F)ncn1` [Example 147, 5-(4-Cyclobutyl-2-fluoro-3-{[6-(1-methylethyl)pyrimidin-4-yl]oxy}phenyl)pyrazin-2-amine], the pKi in experiment [1] is 8.19. For the same compound, in experiment [2], the pIC50 is 6.73.

Take `Nc1cnc(-c2ccc(C3CCC3)c(Oc3cc(O)ncn3)c2F)cn1` [Example 98, 6-[3-(5-Aminopyrazin-2-yl)-6-cyclobutyl-2-fluorophenoxy]pyrimidin-4-ol]: in experiment [1], the pKi was 8.10. In experiment [2], the negative-log IC50 (pIC50) was 6.76.

With `Nc1cnc(-c2ccc(CC3CCCCC3)c(Oc3ncccn3)c2F)cn1` [Example 321, 5-(4-(Cyclohexylmethyl)-2-fluoro-3-(pyrimidin-2-yloxy)phenyl)pyrazin-2-amine], in experiment [1], the pKi was 6.93. Further, in experiment [2], the negative logarithm of the IC50 (pIC50) was less than 5.00.

As for `CS(=O)(=O)c1ccc(Oc2c(C3CCC3)ccc(-c3cnc(N)cn3)c2F)c(Cl)c1` [Example 123, 5-{3-[2-Chloro-4-(methylsulfonyl)phenoxy]-4-cyclobutyl-2-fluorophenyl}pyrazin-2-amine], the negative logarithm of the Ki (pKi) in experiment [1] was 8.15. Also, the pIC50 in experiment [2] is 5.35.

Regarding `CC(C)(C)OC(=O)N1CCCC(COc2c(C3CCC3)ccc(-c3cnc(N)cn3)c2F)C1` (stereo not drawn) [Example 249, tert-Butyl 3-((3-(5-aminopyrazin-2-yl)-6-cyclobutyl-2-fluorophenoxy)methyl)piperidine-1-carboxylate], the negative-log Ki (pKi) in experiment [1] is 6.68. Moreover, the negative-log IC50 (pIC50) in experiment [2] was 5.90.

Consider `Nc1cnc(-c2ccc(C3CCC3)c(OCc3cccc(F)c3)c2F)cn1` [Example 29, 5-{4-Cyclobutyl-2-fluoro-3-[(3-fluorobenzyl)oxy]phenyl}pyrazin-2-amine], for which, in experiment [1], the negative-log Ki (pKi) was 6.65. Further, in experiment [2], the negative-log IC50 (pIC50) was 5.97.

Take `Cc1nc(N)cc(Oc2c(C3CCC3)ccc(-c3cnc(N)cn3)c2F)n1` [Example 140, 6-[3-(5-Aminopyrazin-2-yl)-6-cyclobutyl-2-fluorophenoxy]-2-methylpyrimidin-4-amine trifluoroacetate salt]: the negative logarithm of the Ki (pKi) in experiment [1] is 8.89. The negative-log IC50 (pIC50) in experiment [2] was 7.93.

`COC(=O)c1ccc(O)c(NC(=O)COc2c(C3CCC3)ccc(-c3cnc(N)cn3)c2F)c1` [Example 263, Methyl 3-({[3-(5-aminopyrazin-2-yl)-6-cyclobutyl-2-fluorophenoxy]acetyl}amino)-4-hydroxybenzoate]: in experiment [1], the negative-log Ki (pKi) was 6.86. For the same compound, the pIC50 in experiment [2] is 5.71.

Regarding `Nc1cnc(-c2ccc(C3CCC3)c(Oc3ccc(C(=O)O)cc3)c2F)cn1` [Example 153, 4-[3-(5-Aminopyrazin-2-yl)-6-cyclobutyl-2-fluorophenoxy]benzoic acid], the pKi in experiment [1] is 8.64. The pIC50 in experiment [2] is 6.37.

For `COc1c(C2CCC2)ccc(-c2cnc(N)cn2)c1F` [A, 5-(4-Cyclobutyl-2-fluoro-3-methoxyphenyl)pyrazin-2-amine], in experiment [1], the pKi was 7.19. The pIC50 in experiment [2] is 6.27.

As for `Nc1ccnc(Oc2c(C3CCC3)ccc(-c3cnc(N)nc3)c2F)n1` [Example 161, 5-{3-[(4-Aminopyrimidin-2-yl)oxy]-4-cyclobutyl-2-fluorophenyl}pyrimidin-2-amine], the negative-log Ki (pKi) in experiment [1] is 7.65. In experiment [2], the pIC50 was 7.06.

Regarding `Nc1cnc(-c2ccc(C3CCC3)c(Oc3nccc(-c4ccccc4)n3)c2F)cn1` [Example 87, 5-{4-Cyclobutyl-2-fluoro-3-[(4-phenylpyrimidin-2-yl)oxy]phenyl}pyrazin-2-amine], the negative-log Ki (pKi) in experiment [1] is 9.00. The negative-log IC50 (pIC50) in experiment [2] is 8.17.

On to `Nc1cnc(-c2ccc(C3CCCCC3)c(Oc3nccc(N)n3)c2F)cn1` [Example 325, 2-(3-(5-Aminopyrazin-2-yl)-6-cyclohexyl-2-fluorophenoxy)pyrimidin-4-amine], for which the pKi in experiment [1] was 8.02. Also, the pIC50 in experiment [2] was 7.28.

As for `N#CCOc1c(C2CCC2)ccc(-c2cnc(N)cn2)c1F` [Example 276, [3-(5-Aminopyrazin-2-yl)-6-cyclobutyl-2-fluorophenoxy]acetonitrile], the pKi in experiment [1] is 7.41. In experiment [2], the pIC50 is 6.39.

As to `NC(=O)c1ccccc1COc1c(C2CCC2)ccc(-c2cnc(N)cn2)c1F` [Example 19, 2-{[3-(5-Aminopyrazin-2-yl)-6-cyclobutyl-2-fluorophenoxy]methyl}benzamide], the pKi in experiment [1] is 7.00. Also, the negative-log IC50 (pIC50) in experiment [2] was 6.09.

For `N#Cc1ccc(Oc2c(C3CCC3)ccc(-c3cnc(N)cn3)c2F)cc1` [Example 101, 4-[3-(5-Aminopyrazin-2-yl)-6-cyclobutyl-2-fluorophenoxy]benzonitrile], the pKi in experiment [1] is 7.64. Besides, the negative logarithm of the IC50 (pIC50) in experiment [2] was 6.04.

For the compound `COc1cc(Oc2c(C3CCC3)ccc(-c3cnc4[nH]ccc4n3)c2F)ncn1` [Example 229, 2-(4-cyclobutyl-2-fluoro-3-((6-methoxypyrimidin-4-yl)oxy)phenyl)-5H-pyrrolo[2,3-b]pyrazine], in experiment [1], the negative logarithm of the Ki (pKi) was 8.11. In addition, the negative logarithm of the IC50 (pIC50) in experiment [2] is 6.39.

As to `Fc1c(-c2cnc3c(c2)OCCN3)ccc(C2CCC2)c1OCc1ccc(C(F)(F)F)cc1` [Example 191, 7-(4-Cyclobutyl-2-fluoro-3-{[4-(trifluoromethyl)benzyl]oxy}phenyl)-3,4-dihydro-2H-pyrido[3,2-b][1,4]oxazine], the negative-log Ki (pKi) in experiment [1] was 6.60. Moreover, the negative logarithm of the IC50 (pIC50) in experiment [2] was 5.46.

Take `Cc1csc2ncnc(Oc3c(C4CCC4)ccc(-c4cnc(N)cn4)c3F)c12` [Example 331, 5-(4-Cyclobutyl-2-fluoro-3-((5-methylthieno[2,3-d]pyrimidin-4-yl)oxy)phenyl)pyrazin-2-amine]: in experiment [1], the negative logarithm of the Ki (pKi) is 8.43. The pIC50 in experiment [2] is 7.89.

Regarding `Cn1ccc(COc2c(C3CCC3)ccc(-c3cnc(N)cn3)c2F)n1` [Example 47, 5-{4-Cyclobutyl-2-fluoro-3-[(1-methyl-1H-pyrazol-3-yl)methoxy]phenyl}pyrazin-2-amine], the pKi in experiment [1] was 7.38. Besides, the negative logarithm of the IC50 (pIC50) in experiment [2] is 6.52.

Regarding `CS(=O)(=O)NCCOc1c(C2CCC2)ccc(-c2cnc(N)cn2)c1F` [Example 243, N-(2-(3-(5-Aminopyrazin-2-yl)-6-cyclobutyl-2-fluorophenoxy)-ethyl)-methane-sulfonamide], the negative logarithm of the Ki (pKi) in experiment [1] was 6.63. Further, the negative-log IC50 (pIC50) in experiment [2] is 6.07.

With `Nc1cnc(-c2ccc(C3CCC3)c(Oc3nccc(-c4cccs4)n3)c2F)cn1` [Example 91, 5-{4-Cyclobutyl-2-fluoro-3-[(4-thiophen-2-ylpyrimidin-2-yl)oxy]phenyl}pyrazin-2-amine], in experiment [1], the pKi was 9.00. Moreover, the pIC50 in experiment [2] is 8.32.

As to `Nc1cnc(-c2ccc(C3CCC3)c(Oc3nccc(N)n3)c2F)cn1` [Example 119, 2-[3-(5-Aminopyrazin-2-yl)-6-cyclobutyl-2-fluorophenoxy]pyrimidin-4-amine], the pKi in experiment [1] was 8.22. For the same compound, the pIC50 in experiment [2] is 7.58.

As to `Nc1cnc(-c2ccc(C3CCC3)c(OCC(O)Cn3c(=O)[nH]c4ccccc43)c2F)cn1` (racemic) [Example 311, racemic 1-{3-[3-(5-Aminopyrazin-2-yl)-6-cyclobutyl-2-fluorophenoxy]-2-hydroxypropyl}-1,3-dihydro-2H-benzimidazol-2-one], in experiment [1], the pKi was 8.09. Also, the pIC50 in experiment [2] is 6.96.

As to `Nc1cnc(-c2ccc(C3CCC3)c(OCc3ccc(CC(=O)O)cc3)c2F)cn1` [Example 23, (4-{[3-(5-Aminopyrazin-2-yl)-6-cyclobutyl-2-fluorophenoxy]methyl}phenyl)acetic acid], the negative logarithm of the Ki (pKi) in experiment [1] is 8.70. Also, in experiment [2], the pIC50 is 6.44.

In the case of `N#Cc1ccc(COc2c(C3CCC3)ccc(-c3cnc(N)cn3)c2F)cc1` [Example 15, 4-{[3-(5-Aminopyrazin-2-yl)-6-cyclobutyl-2-fluorophenoxy]methyl}benzonitrile], in experiment [1], the pKi was 6.71. Also, the pIC50 in experiment [2] was 5.91.

The values are drawn from patent US9073876B2, “Flap modulators” (JANSSEN PHARMACEUTICA NV, priority 2013, dated 2015).
